US20110136163A1, “Method of Toxicological Assessment” (priority 2008, published 2011)
Entries after “also recorded” stand apart in the source; their conditions may differ. *1 amine or outer side, *2 acyl side, *3 side chain or, on linkers, in order; H or OH if unused. Where a SMILES comes first, the peptide text is derived from it. Bridges are numbered along the chain shown (N, C = ends). [ ]: non-standard residue; d: D form. Adda = CO[C@@H](Cc1ccccc1)[C@@H](C)/C=C(C)/C=C/[C@H](N[*:1])[C@H](C)C(=O)[*:2]; dAsp(3S-Me) = C[C@H](C(=O)[*:3])[C@@H](N[*:1])C(=O)[*:2]; d(γGlu) = O=C(O)[C@@H](CCC(=O)[*:2])N[*:1]; NMeDha = C=C(NC)C(=O)O

How the values were obtained:
[1] = test system: Jurkat cells; assay: O2 consumption toxicity assay in Jurkat cells, with and without transport reagent; format: cell-based
[2] = test system: HepG2 cells; assay: Western blot of protein phosphorylation (anti-phospho-serine) in HepG2 cells; format: cell-based
Description: FIG. 2. Western blot analysis of HepG2 cells treated with MCLR in the presence of EndoPorter for 24 h, primary antibodies used were anti-phospho-serine. Blot analysis show dependence of protein phosphorylation on MCLR concentration.
A number of other markers of cellular function were also investigated for their alterations in response to MCLR treatment of cells in the presence of transport reagent. […] Metabolic parameters such as intracellular levels of ATP and NAD(P)H were seen unchanged.

[3] = test system: Jurkat cells; assay: ATP content in Jurkat cells, with and without transport reagent; format: cell-based
Text: A number of other transport reagents, toxicants, cell models and parameters of cellular function were examined, using the general assay format described in Example 1.

[4] = test system: Primary rat hepatocytes; format: cell-based
[5] = test system: isolated rat liver mitochondria; format: biochemical
[6] = test system: cells; format: cell-based
[7] = test system: HepG2 cells; assay: O2 consumption toxicity assay in HepG2 cells, with and without transport reagent; format: cell-based

Row | Compound | O2 consumption / toxicity, observed effect [1] | Concentration above which significant effects on O2 consumption were seen [1] | O2 consumption, observed effect [1] | Protein phosphorylation/dephosphorylation in Western blots [2] | ATP content, observed effect [3] | Concentration at which parameters of cellular function were affected [4] | O2 consumption, observed effect [4] | IC50 ([4]; read-out: O2 consumption, IC50) | Effect on O2 consumption of isolated mitochondria [5] | Intracellular level of ATP [6] | Intracellular level of NAD(P)H [6] | Concentration above which significant effects on O2 consumption were seen [7] | Peak of bell-shape dose response of O2 consumption [7]
1 | Aflatoxin B1 | increased toxicity | – | – | – | – | – | – | – | – | – | – | – | –
2 | C=C1C(=O)N[C@H](C)C(=O)N[C@@H](CC(C)C)C(=O)N[C@@H](C(=O)O)[C@H](C)C(=O)N[C@@H](CCCNC(=N)N)C(=O)N[C@@H](/C=C/C(C)=C/[C@H](C)[C@H](Cc2ccccc2)OC)[C@H](C)C(=O)N[C@@H](C(=O)O)CCC(=O)N1C [MCLR, Microcystin-LR] (R[Adda][d(γGlu)][NMeDha][dA]L[dAsp(3S-Me)]-OH; lactam N-7) | strong toxicity; also recorded: respiration decreased | above 0.1 nM | no detectable toxicity; also recorded: No effect at 10 μM | altered protein phosphorylation/dephosphorylation | No effect at 10 μM; also recorded: Dose dependent decrease | ≥ 0.5 nM | dose-dependent decreases in oxygen consumption | 2.74 nM | uncoupling effect | unchanged | unchanged | above 0.1 nM | around 0.5 nM
